{"source": "paper PMC3064998", "about": "“In Vitro Selection of Cathepsin E-Activity-Enhancing Peptide Aptamers at Neutral pH” (International Journal of Peptides, 2011)", "molecules": {"B1": {"name": "Cathepsin E (protein)", "chain": "SESCNVDKGINEPLINYLDMEYFGTVSIGSPSQNFTVIFDTGSSNLWVPSVYCTSPACKAHPVFHPSQSSTYMEVGNHFSIQYGTGSLTGIIGADQVSVEGLTVEGQQFGESVKEPGQTFVNAEFDGILGLGYPSLAVGGVTPVFDNMMAQNLVALPMFSVYLSSDPQGGSGSELTFGGYDPSHFSGSLNWIPVTKQGYWQIALDGIQVGDTVMFCSEGCQAIVDTGTSLITGPPKKIKQLQEAIGATPMDGEYAVDCATLNMMPNVTFLINGVSYTLSPTAYILPDLVDGMQFCGSGFQGLDIQPPAGPLWILGDVFIRKFYSVFDRGNNQVGLAPAVP"}}, "key": {"cathepsin E": {"target": "T1, cathepsin E (Rattus norvegicus, UniProt P16228)", "T1 construct": "The enzyme CatE was prepared from rat spleen according to the method previously described; from tissue; host or cells: rat spleen", "T1 sequence (P16228 59-398)": "B1 chain", "assay": "SPR (Biacore 2000) measurement of KD", "settings": "CatE immobilized on CM5 chip, running buffer 50 mM Tris-HCl, 100 mM NaCl, pH 7.4, four peptide concentrations, 1:1 binding with mass transfer model, unit M printed in b35 only, read-out: KD (dissociation constant)", "experimental": "(§1) A fluorogenic substrate susceptible at neutral pH to the protease cathepsin E, which usually functions at acidic pH, was designed as per reference: [Nma-Gly-Gly-Arg-Arg-Ser-Gly-Thy-Cys-Gly(Dnp)-D-Arg-NH2]. The peptide was custom-synthesized at Peptide Institute (Osaka, Japan) and confirmed to be an effective substrate at pH 7.4. The peptide was dissolved in dimethyl sulfoxide (DMSO) at 10 mM and stored in a deep freezer until use. The enzyme CatE was prepared from rat spleen according to the method previously described and immobilized on N-hydroxysuccinimide-activated sepharose beads (GE Healthcare, USA) using the amine-coupling method and stored in, 100 mM phosphate buffer (pH 7.4) at 4°C.\nAn SPR instrument, Biacore 2000 (GE Healthcare, UK), was used for measuring KD for the binding of cathepsin E and selected peptides. Cathepsin E was immobilized onto Biacore sensor chip CM5 (GE Healthcare, UK) by the amine-coupling method using an Amine Coupling Kit (GE Healthcare, UK). Immobilization of cathepsin E was performed using running buffer (50 mM sodium acetate, 100 mM NaCl, pH 4.5). To determine dissociation constants, four different concentrations of selected peptides were used for the interaction. […] The binding data were analyzed with the 1 : 1 binding with mass transfer model in the BIAevaluation software version 4 : 1 (Biacore)."}, "cathepsin E (CatE)": {"test_system": "cathepsin E (CatE)", "assay": "CatE-activity-enhancement assay at neutral pH (fluorogenic substrate)", "type": "biochemical, rat", "settings": "pH 7.4; for Activities (%) Asy (CatE activity with chemically synthesized peptide): CatE 20 nM : peptide 1:1; for Activities (%) Asy (CatE activity with chemically synthesized peptide) / Activities (%) Adp (CatE activity with in vitro translated peptide): 50 mM Tris-HCl, 100 mM NaCl, preincubation 25°C 10 min, substrate 5 μM, 37°C 1 h, fluorescence ex 340/em 440 nm, 100% = CatE + substrate without peptide; for Activities (%) Adp (CatE activity with in vitro translated peptide): CatE 20 nM : peptide 1:1 (20 nM), three independent experiments", "experimental": "as §1\nCatE-activation by peptide aptamers was assayed by the method described previously but with a few modifications. Briefly, the CatE (20 nM) solution preincubated with a peptide aptamer in a 1 : 1 molar ratio in the selection buffer (50 mM Tris-HCl, 100 mM NaCl, pH 7.4) at 25°C for 10 min. was combined with the fluorogenic substrate (5 μM) and the enzyme reaction performed at 37°C for 1 h. The reaction product was measured by fluorescence intensity at 440 nm with an excitation wavelength of 340 nm using a fluorescence microplate reader, Infinite 200 (Tecan, Japan). The percentage of activation (A) was calculated by fitting the data to the following equation:\n(1) A=100×Sf−Bf/Cf−Bf [% activation], where Sf represents the fluorescence intensity of the positive reaction consisting of the enzyme (CatE), the fluorogenic substrate, and a possible peptide activator; C f is that of the control reaction mixture consisting of CatE and fluorogenic substrate (without peptide activator); B f is the background fluorescence of the negative reaction mixture consisting of only the fluorogenic substrate."}, "[1]": {"target": "T2, P1 (p2006) peptide aptamer", "T2 chain": "VGCDFMYV", "assay": "SPR"}, "[2]": {"target": "T3, P3 (p3006) peptide aptamer", "T3 chain": "IEGRVGCDFMYVG", "assay": "SPR"}, "[3]": {"target": "T4, S3 (p4038) peptide aptamer", "T4 chain": "IGCEERSFPNIIIIIG", "assay": "SPR"}}, "note": "Ends that are not written are not given here."}
{"molecule": "IEGRVGCDFMYVG [P3]", "values": [{"measurement": "Kd", "setting": "cathepsin E", "result": 334, "unit": "nM"}]}
{"molecule": "IGCEERSFPNIIIIIG [S3]", "values": [{"measurement": "Kd", "setting": "cathepsin E", "result": 389, "unit": "nM"}]}
{"molecule": "KGPPPCPC [P2]", "values": [{"measurement": "Activities (%) Asy (CatE activity with chemically synthesized peptide)", "setting": "cathepsin E (CatE)", "result": "110 ± 4", "unit": "%"}, {"measurement": "Activities (%) Adp (CatE activity with in vitro translated peptide)", "setting": "cathepsin E (CatE)", "result": "128 ± 20", "unit": "%"}, {"measurement": "enhancement of CatE-activity (increase over control)", "setting": "cathepsin E (CatE); in vitro translation synthesized peptides", "result": "10 to 30", "unit": "%"}]}
{"molecule": "PGIKPPPCIIIIG [S2]", "values": [{"measurement": "Activities (%) Asy (CatE activity with chemically synthesized peptide)", "setting": "cathepsin E (CatE)", "result": "144.5 ± 11", "unit": "%"}, {"measurement": "Activities (%) Adp (CatE activity with in vitro translated peptide)", "setting": "cathepsin E (CatE)", "result": "180 ± 10", "unit": "%"}]}
{"molecule": "SPIISHIVGCDPPSCG [S1]", "values": [{"measurement": "Activities (%) Adp (CatE activity with in vitro translated peptide)", "setting": "cathepsin E (CatE)", "result": "160 ± 20", "unit": "%"}]}
{"molecule": "B1", "values": [{"measurement": "Kd", "setting": "[1]", "result": "~10000", "unit": "nM"}, {"measurement": "Kd", "setting": "[2]", "result": 334, "unit": "nM"}, {"measurement": "Kd", "setting": "[3]", "result": 389, "unit": "nM"}]}
